Experimental data as given in patent US7981912B2, “Indole acetic acids exhibiting CRTH2 receptor antagonism and uses thereof” (Wyeth LLC, priority 2004, dated 2011).
pKi: −log10 of the molar value.

Biological target: T1, human CRTH2 (Homo sapiens, UniProt Q9Y5Y4)
T1 sequence (Q9Y5Y4 1-395): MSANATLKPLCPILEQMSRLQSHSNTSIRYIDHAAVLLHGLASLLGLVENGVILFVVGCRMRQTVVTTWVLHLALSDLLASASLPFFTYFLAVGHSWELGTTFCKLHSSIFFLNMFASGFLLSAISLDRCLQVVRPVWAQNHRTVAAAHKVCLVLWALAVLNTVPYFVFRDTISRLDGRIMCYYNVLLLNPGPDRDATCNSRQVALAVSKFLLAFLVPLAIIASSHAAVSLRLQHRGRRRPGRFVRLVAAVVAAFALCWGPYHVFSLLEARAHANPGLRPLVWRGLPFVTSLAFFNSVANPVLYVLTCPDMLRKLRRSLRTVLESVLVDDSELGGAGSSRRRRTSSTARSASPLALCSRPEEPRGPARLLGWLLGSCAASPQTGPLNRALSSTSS
Test: CRTH-2 binding assay (scintillation proximity assay, inhibition of 3H-PGD2 binding)
Parameters: expressed in transfected cells; host or cells: HEK 293EBNA-hCRTH2 (membrane preparation)
Conditions: inhibition of 3H-PGD2 (3.6 nM) binding to HEK 293EBNA-hCRTH2 membranes; Ki calculated from IC50
Procedure: A CRTH2 binding assay was developed to measure the ability of compounds to inhibit the binding of PGD2 to human CRTH2 using a scintillation proximity assay.
Membranes containing hCRTH2 receptors were prepared from HEK 293EBNA-hCRTH2 cells (a HEK 293EBNA cell line stably expressing human CRTH2). The cells were grown to confluency, harvested and washed with PBS. The cells were resuspended in 10 mM Hepes pH 7.4, 1 mM EDTA and protease inhibitors and incubated for 30 min on ice. The cells were homogenized and centrifuged for 10 min at 1000×g. The supernate was centrifuged for 30 min at 100,000×g and the membrane pellet was then resusupended in 10 mM Hepes pH 7.4 and 1 mM EDTA. The protein concentration of the membrane preparation was determined by Bradford assay (Bio-Rad).
The ability of compounds to inhibit the interaction of PGD2 to human CRTH2 was determined at seven compound concentrations. Compounds were serially diluted in DMSO then diluted into CRTH2 buffer without glycerol (10 mM Hepes pH 7.4, 1 mM EDTA, 10 mM MnCl2) to six times the final desired concentration. 20 μL of the diluted compounds were transferred into non-surface binding 96 well plates (Corning). Each concentration was done in triplicate. In addition to test compounds, each plate contained 12 control wells. Six of these wells contained 20 μL of CRTH2 buffer without glycerol. These wells were used to measure total binding. Six wells contained 20 μL of CRTH2 buffer without glycerol plus 1.5 mM indomethacin. These wells were used to measure non-specific binding. Next, HEK 293EBNA-hCRTH2 membranes were resuspended in CRTH2 buffer with glycerol (10 mM Hepes pH 7.4, 1 mM EDTA, 10 mM MnCl2, 25% glycerol) so that the final concentration was approximately 20 μg protein/100 μL. Polylysine coated yttrium silicate SPA beads (Amershamn) were added to the membrane mix to a concentration of 0.4 mg/100 μL and finally ^3H-PGD2 was added to the membrane/SPA bead mix to 3.6 nM. 100 μL of the membrane/SPA bead/^3H-PGD2 mix was added to each well of the non-surface binding plates containing the diluted compound plus controls. The plates were incubated for 2 hours at room temperature with shaking and then the plates were counted on a Microbeta scintillation counter (Perkin Elmer) for 1 min per well.
IC50 values were determined from the experimental results by nonlinear regression using Prism 4.0 software. The IC50 values were then used in conjunction with the […] for hCRTH2 and the ^3H-PGD2 concentration used in the experiment to calculate the Ki for each compound.

Compound | pKi
O=C(O)Cn1cc(C2c3ccccc3S(=O)(=O)N2Cc2ccc3ccccc3n2)c2ccccc21 (stereo not drawn) [Example 30, [3-(1,1-Dioxo-2-quinolin-2-ylmethyl-2,3-dihydro-1H-1λ^6-benzo[d]isothiazol-3-yl)-indol-1-yl]-acetic acid] | > 5.00
Cc1c(C2c3ccccc3S(=O)(=O)N2CC(=O)Nc2ccc(F)cc2)c2ccccc2n1CC(=O)O (stereo not drawn) [Example 37, (3-{2-[(4-Fluoro-phenylcarbamoyl)-methyl]-1,1-dioxo-2,3-dihydro-1H-1λ^6-benzo[d]isothiazol-3-yl}-2-methyl-indol-1-yl)-acetic acid] | > 5.00
Cc1c(C2c3ccccc3S(=O)(=O)N2CCO)c2ccccc2n1CC(=O)O (stereo not drawn) [Example 38, {3-[2-(2-Hydroxy-ethyl)-1,1-dioxo-2,3-dihydro-1H-1λ^6-benzo[d]isothiazol-3-yl]-2-methyl-indol-1-yl}-acetic acid] | > 5.00
Cc1nc(CN2C(c3c(C)n(CC(=O)O)c4ccccc34)c3ccccc3S2(=O)=O)cs1 (stereo not drawn) [Example 42, {2-Methyl-3-[2-(2-methyl-thiazol-4-ylmethyl)-1,1-dioxo-2,3-dihydro-1H-1λ^6benzo[d]isothiazol-3-yl]-indol-1-yl}-acetic acid] | > 6.00
Cc1c(C2c3ccccc3S(=O)(=O)N2Cc2cccc(C(F)(F)F)c2)c2ccccc2n1CC(=O)O (stereo not drawn) [Example 43, {3-[1,1-Dioxo-2-(3-trifluoromethyl-benzyl)-2,3-dihydro-1H-1λ^6-benzo[d]isothiazol-3-yl]-2-methyl-indol-1-yl}-acetic acid] | > 6.00
Cc1c(C2c3ccccc3S(=O)(=O)N2CCC(C)C)c2ccccc2n1CC(=O)O (stereo not drawn) [Example 44, {2-Methyl-3-[2-(3-methyl-butyl)-1,1-dioxo-2,3-dihydro-1H-1λ^6-benzo[d]isothiazol-3-yl]-indol-1-yl}-acetic acid] | > 6.00
C=CCN1C(c2c(C)n(CC(=O)O)c3ccccc23)c2ccccc2S1(=O)=O (stereo not drawn) [Example 45, [3-(2-Allyl-1,1-dioxo-2,3-dihydro-1H-1λ^6-benzo[d]isothiazol-3-yl)-2-methyl-indol-1-yl]-acetic acid] | > 6.00
Cc1c(C2c3ccccc3S(=O)(=O)N2CCCOc2ccccc2)c2ccccc2n1CC(=O)O (stereo not drawn) [Example 46, {3-[1,1-Dioxo-2-(3-phenoxy-propyl)-2,3-dihydro-1H-1λ^6-benzo[d]isothiazol-3-yl]-2-methyl-indol-1-yl}-acetic acid] | > 6.00
Cc1c(C2c3ccccc3S(=O)(=O)N2C(C)C)c2ccccc2n1CC(=O)O (stereo not drawn) [Example 47, [3-(2-Isopropyl-1,1-dioxo-2,3-dihydro-1H-1λ^6-benzo[d]isothiazol-3-yl)-2-methyl-indol-1-yl]-acetic acid] | > 6.00
Cc1ccc2c(c1)c(C1c3ccccc3S(=O)(=O)N1Cc1nc3ccccc3s1)cn2CC(=O)O (stereo not drawn) [Example 48, [3-(2-Benzothiazol-2-ylmethyl-1,1-dioxo-2,3-dihydro-1H-1λ^6-benzo[d]isothiazol-3-yl)-5-methyl-indol-1-yl]-acetic acid] | > 6.00
Cc1ccc2c(c1)c(C1c3ccccc3S(=O)(=O)N1Cc1ccc(F)cc1)cn2CC(=O)O (stereo not drawn) [Example 49, {3-[2-(4-Fluoro-benzyl)-1,1-dioxo-2,3-dihydro-1H—1λ^6-benzo[d]isothiazol-3-yl]-5-methyl-indol-1-yl}-acetic acid] | > 6.00
Cc1ccc2c(c1)c(C1c3ccccc3S(=O)(=O)N1CCCOCc1ccccc1)cn2CC(=O)O (stereo not drawn) [Example 50, {3-[2-(3-Benzyloxy-propyl)-1,1-dioxo-2,3-dihydro-1H-1λ^6-benzo[d]isothiazol-3-yl]-5-methyl-indol-1-yl}-acetic acid] | > 5.00
Cc1ccc2c(c1)c(C1c3ccccc3S(=O)(=O)N1Cc1cccc(C(F)(F)F)c1)cn2CC(=O)O (stereo not drawn) [Example 51, {3-[1,1-Dioxo-2-(3-trifluoromethyl-benzyl)-2,3-dihydro-1H-1λ^6-benzo[d]isothiazol-3-yl]-5-methyl-indol-1-yl}-acetic acid] | > 5.00
COCCCN1C(c2cn(CC(=O)O)c3ccc(C)cc23)c2ccccc2S1(=O)=O (stereo not drawn) [Example 52, {3-[2-(3-Methoxy-propyl)-1,1-dioxo-2,3-dihydro-1H-1λ^6-benzo[d]isothiazol-3-yl]-5-methyl-indol-1-yl}-acetic acid] | > 5.00
Cc1ccc2c(c1)c(C1c3ccccc3S(=O)(=O)N1C(C)C#N)cn2CC(=O)O (stereo not drawn) [Example 53, {3-[2-(Cyano-methyl-methyl)-1,1-dioxo-2,3-dihydro-1H-1λ^6-benzo[d]isothiazol-3-yl]-5-methyl-indol-1-yl}-acetic acid] | > 5.00

More lines, now with the values ahead:

pKi | Compound
> 6.00 | O=C(O)Cn1cc(C2c3ccccc3S(=O)(=O)N2Cc2cccc(Oc3ccc(F)cc3)c2)c2ccccc21 (stereo not drawn) [Example 31, (3-{2-[3-(4-Fluoro-phenoxy)-benzyl]-1,1-dioxo-2,3-dihydro-1H-1λ^6benzo[d]isothiazol-3-yl}-indol-1-yl)-acetic acid]
> 6.00 | O=C(O)Cn1cc(C2c3ccccc3S(=O)(=O)N2Cc2ccccc2-c2ccccc2)c2ccccc21 (stereo not drawn) [Example 32, [3-(2-Biphenyl-2-ylmethyl-1,1-dioxo-2,3-dihydro-1H-1λ^6-benzo[d]isothiazol-3-yl)-indol-1-yl]-acetic acid]
> 6.00 | O=C(O)Cn1cc(C2c3ccccc3S(=O)(=O)N2Cc2csc(-c3cccs3)n2)c2ccccc21 (stereo not drawn) [Example 33, {3-[1,1-Dioxo-2-(2-thiophen-2-yl-thiazol-4-ylmethyl)-2,3-dihydro-1H-1λ^6-benzo[d]isothiazol-3-yl]-indol-1-yl}-acetic acid]
> 6.00 | O=C(O)Cn1cc(C2c3ccccc3S(=O)(=O)N2Cc2csc(-c3ccc(Cl)cc3)n2)c2ccccc21 (stereo not drawn) [Example 34, (3-{2-[2-(4-Chloro-phenyl)-thiazol-4-ylmethyl]-1,1-dioxo-2,3-dihydro-1H-1λ^6-benzo[d]isothiazol-3-yl}-indol-1-yl)-acetic acid]
> 7.00 | Cc1noc(C)c1CN1C(c2cn(CC(=O)O)c3ccccc23)c2ccccc2S1(=O)=O (stereo not drawn) [Example 35, {3-[2-(3,5-Dimethyl-isoxazol-4-ylmethyl)-1,1-dioxo-2,3-dihydro-1H-1λ^6benzo[d]isothiazol-3-yl]-indol-1-yl}-acetic acid]
> 7.00 | Cc1onc(-c2ccccc2)c1CN1C(c2c(C)n(CC(=O)O)c3ccccc23)c2ccccc2S1(=O)=O (stereo not drawn) [Example 36, {2-Methyl-3-[2-(5-methyl-3-phenyl-isoxazol-4-ylmethyl)-1,1-dioxo-2,3-dihydro-1H-1λ^6-benzo[d]isothiazol-3-yl]-indol-1-yl}-acetic acid]
> 7.00 | Cc1c(C2c3ccccc3S(=O)(=O)N2CCOc2ccc(Cl)cc2)c2ccccc2n1CC(=O)O (stereo not drawn) [Example 39, (3-{2-[2-(4-Chloro-phenoxy)-ethyl]-1,1-dioxo-2,3-dihydro-1H-1λ^6-benzo[d]isothiazol-3-yl}-2-methyl-indol-1-yl)-acetic acid]
> 6.00 | CCOC(=O)CN1C(c2c(C)n(CC(=O)O)c3ccccc23)c2ccccc2S1(=O)=O (stereo not drawn) [Example 40, [3-(2-Ethoxycarbonylmethyl-1,1-dioxo-2,3-dihydro-1H-1λ^6benzo[d]isothiazol-3-yl)-2-methyl-indol-1-yl]-acetic acid]
> 6.00 | Cc1c(C2c3ccccc3S(=O)(=O)N2CC2COc3ccccc3O2)c2ccccc2n1CC(=O)O (stereo not drawn) [Example 41, {3-[2-(2,3-Dihydro-benzo[1,4]dioxin-2-ylmethyl)-1,1-dioxo-2,3-dihydro-1H-1λ^6-benzo[d]isothiazol-3-yl]-2-methyl-indol-1-yl}-acetic acid]
